These results are taken from ChEMBL document CHEMBL3045944, “Synthesis and antibacterial evaluation of series of novel tri-substituted-s-triazine derivatives” (Med Chem Res, 2011).

Converted amounts (≈) assume the structure as drawn.

The term MIC denotes the least concentration at which growth counts as inhibited. Low values mean inhibition by little substance, high ones a need for much substance.

Data set [1] is described as follows: Solubility of the compound in benzene. It counts as physicochemical.
A short description of data set [2]: Solubility of the compound in acetic acid. It counts as physicochemical.
Data set [3] is described as follows: Solubility of the compound in DMF. It counts as physicochemical.
Data set [4] can be described thus: Solubility of the compound in ethanol. Format: physicochemical.
Data set [5] is described as follows: Solubility of the compound in ethyl acetate. Format: physicochemical.
The nature of data set [6]: Solubility of the compound in dilute acids. Format: physicochemical.
The nature of data set [7]: Solubility of the compound in DMSO. It counts as physicochemical.
Data set [8] is described as follows: Solubility of the compound in water. It counts as physicochemical.
Data set [9] in a line: Solubility of the compound in chloroform. It counts as physicochemical.
The test system of data set [10] is Staphylococcus aureus. Briefly: Antibacterial activity against Staphylococcus aureus NCIM 2079 after 24 hr by broth dilution method. Format: functional. The following applies: NCIM 2079, 24 h. For orientation: Dilution methods test growth across graded concentrations, often in twofold steps.
Data set [11] deals with Escherichia coli. Briefly: Antibacterial activity against Escherichia coli NCIM 2065 after 24 hr by broth dilution method. The following applies: NCIM 2065, 24 h. It counts as functional.
In data set [12] the test system is Bacillus subtilis. Briefly: Antibacterial activity against Bacillus subtilis NCIM 2063 after 24 hr by broth dilution method. Format: functional. The following applies: NCIM 2063, 24 h.
The subject of data set [13] is Pseudomonas aeruginosa. The experiment in a line: Antibacterial activity against Pseudomonas aeruginosa NCIM 2036 after 24 hr by broth dilution method. It counts as functional. The following applies: NCIM 2036, 24 h.
The test system of data set [14] is Bacillus cereus. Briefly: Antibacterial activity against Bacillus cereus NCIM 2156 after 24 hr by broth dilution method. Format: functional. The following applies: NCIM 2156, 24 h.
For data set [15], the system named is Klebsiella pneumoniae. Briefly: Antibacterial activity against Klebsiella pneumoniae NCIM 2706 after 24 hr by broth dilution method. Format: functional. The following applies: NCIM 2706, 24 h.

For the molecule `Nc1nc(-c2ccc([N+](=O)[O-])cc2)cs1`, the solubility entry in data set [1] is “soluble”; in data set [2], “Insoluble”; in data set [3] it was “soluble”; in data set [4], “soluble”; in data set [5] it was “soluble”; in data set [6] it was “soluble”. The solubility entry in data set [7], in data set [8] and in [9] was “soluble” in each case.

In the case of `Nc1nc(-c2ccc(Cl)cc2)cs1`, the solubility entry is given as “soluble” in data set [1]; “Insoluble” in [2]; “soluble” in data set [3]; “soluble” in data set [4]; “soluble” in [5]; “soluble” in data set [6]. Also, the solubility entry in data set [7], in data set [8] and in data set [9] was “soluble” throughout.

Turning to `Fc1ccc(Nc2nc(Cl)nc(Nc3ccc(F)c(Cl)c3)n2)cc1Cl`, the MIC in data set [10] came out at 50 µg/mL (≈ 124 µM); in data set [11] it was 100 µg/mL (≈ 248 µM); in [12], 100 µg/mL (≈ 248 µM); in data set [13] it was 100 µg/mL (≈ 248 µM); in [14] it was 100 µg/mL (≈ 248 µM); in [15], 100 µg/mL (≈ 248 µM). Moreover, the solubility result in data set [1], in [2], in [4], in data set [6], in [7] and in data set [8] was “soluble” throughout.

In the case of `O=[N+]([O-])c1ccc(Nc2nc(Cl)nc(Nc3ccc([N+](=O)[O-])cc3)n2)cc1`, the minimal inhibitory concentration (MIC) in [10] is 50 µg/mL (≈ 129 µM); in data set [11], 50 µg/mL (≈ 129 µM); in [12], 100 µg/mL (≈ 258 µM); in data set [13], 25 µg/mL (≈ 64.5 µM); in data set [14], 100 µg/mL (≈ 258 µM); in data set [15] it was 100 µg/mL (≈ 258 µM). The solubility result in [1] is given as “Insoluble”; in data set [2], “soluble”; in data set [3], “Insoluble”; in data set [4], “soluble”; in data set [5] it was “soluble”; in [6], “soluble”. Besides, the solubility result in data set [7], in data set [8] and in data set [9] was “soluble” each time.

In the case of `Clc1nc(Nc2ccc(Br)cc2)nc(Nc2ccc(Br)cc2)n1`, the MIC in data set [10], in [11], in data set [12], in data set [13], in data set [14] and in data set [15] was 100 µg/mL (≈ 220 µM) in each case. For the same molecule, the solubility entry in data set [1] was “soluble”; in data set [2], “soluble”; in data set [3] it was “Insoluble”; in data set [4], “soluble”; in data set [5], “soluble”; in data set [6] it was “soluble”. Further, the solubility entry in data set [7] is reported as “soluble”; in [8], “Insoluble”; in data set [9], “Insoluble”.

For the molecule `Fc1ccc(Nc2nc(Cl)nc(Nc3ccc(F)cc3)n2)cc1`, the minimal inhibitory concentration (MIC) in data set [10] stood at 100 µg/mL (≈ 300 µM); in data set [11], 50 µg/mL (≈ 150 µM); in [12], 50 µg/mL (≈ 150 µM); in data set [13] it was 100 µg/mL (≈ 300 µM); in data set [14] it was 50 µg/mL (≈ 150 µM); in [15], 50 µg/mL (≈ 150 µM). For the same molecule, the solubility result in [1] is on record as “soluble”; in data set [2], “soluble”; in data set [3] it was “Insoluble”; in [4], “soluble”; in data set [5], “Insoluble”; in data set [6], “Insoluble”. Moreover, the solubility result is “soluble” in [7], “soluble” in data set [8] and “Insoluble” in [9].

On to `Clc1ccc(Nc2nc(Cl)nc(Nc3ccc(Cl)cc3)n2)cc1`, for which the MIC stood at 50 µg/mL (≈ 136 µM) in data set [10]; 25 µg/mL (≈ 68.2 µM) in [11]; 50 µg/mL (≈ 136 µM) in data set [12]; 50 µg/mL (≈ 136 µM) in data set [13]; 100 µg/mL (≈ 273 µM) in [14]; 25 µg/mL (≈ 68.2 µM) in data set [15]. Also, the solubility result in data set [2] is “soluble”; in [3], “Insoluble”; in data set [4] it was “soluble”; in [5] it was “Insoluble”; in data set [6], “Insoluble”; in data set [7], “soluble”. For the same molecule, the solubility entry is reported as “Insoluble” in [8] and “soluble” in [9].

Consider `Fc1ccc(Nc2nc(Nc3ccc(F)c(Cl)c3)nc(Nc3nc(-c4ccc(Cl)cc4)cs3)n2)cc1Cl`, for which the minimum inhibitory concentration (MIC) was found to be 25 µg/mL (≈ 43.3 µM) in [10]; 12.5 µg/mL (≈ 21.7 µM) in data set [11]; 50 µg/mL (≈ 86.7 µM) in data set [12]; 25 µg/mL (≈ 43.3 µM) in data set [13]; 100 µg/mL (≈ 173 µM) in [14]; 12.5 µg/mL (≈ 21.7 µM) in data set [15]. Also, the solubility entry was “soluble” in [1]; “Insoluble” in data set [2]; “soluble” in data set [3]; “soluble” in [4]; “soluble” in data set [5]; “soluble” in [6]. Moreover, the solubility entry in data set [7], in [8] and in [9] was “soluble” throughout.

As to `O=[N+]([O-])c1ccc(-c2csc(Nc3nc(Nc4ccc(F)c(Cl)c4)nc(Nc4ccc(F)c(Cl)c4)n3)n2)cc1`, the MIC in data set [10] worked out at 50 µg/mL (≈ 85.1 µM); in data set [11], 12.5 µg/mL (≈ 21.3 µM); in [12], 100 µg/mL (≈ 170 µM); in data set [13], 3.12 µg/mL (≈ 5.32 µM); in data set [14], 25 µg/mL (≈ 42.6 µM); in data set [15], 25 µg/mL (≈ 42.6 µM). Moreover, the solubility entry in [1] is “soluble”; in data set [2] it was “Insoluble”; in data set [3], “soluble”; in data set [4] it was “soluble”; in data set [5], “soluble”; in data set [6], “soluble”. The solubility result in data set [7], in [8] and in data set [9] was “soluble” in each case.

In the case of `O=[N+]([O-])c1ccc(Nc2nc(Nc3ccc([N+](=O)[O-])cc3)nc(Nc3nc(-c4ccc([N+](=O)[O-])cc4)cs3)n2)cc1`, the MIC in [10] was determined as 3.12 µg/mL (≈ 5.46 µM); in [11] it was 6.25 µg/mL (≈ 10.9 µM); in [12], 6.25 µg/mL (≈ 10.9 µM); in [13], 3.12 µg/mL (≈ 5.46 µM); in data set [14], 6.25 µg/mL (≈ 10.9 µM); in data set [15] it was 6.25 µg/mL (≈ 10.9 µM). The solubility entry is given as “soluble” in [1]; “Insoluble” in data set [2]; “soluble” in [3]; “soluble” in [4]; “Insoluble” in [5]; “soluble” in data set [6]. Besides, the solubility result in data set [7] is given as “soluble”; in data set [8] it was “soluble”; in data set [9], “Insoluble”.

On to `O=[N+]([O-])c1ccc(-c2csc(Nc3nc(Nc4ccc(Br)cc4)nc(Nc4ccc(Br)cc4)n3)n2)cc1`, for which the MIC is 100 µg/mL (≈ 156 µM) in data set [10]; 100 µg/mL (≈ 156 µM) in [11]; 100 µg/mL (≈ 156 µM) in [12]; 50 µg/mL (≈ 78.1 µM) in [13]; 100 µg/mL (≈ 156 µM) in [14]; 100 µg/mL (≈ 156 µM) in [15]. The solubility entry in data set [1], in data set [2], in [3], in data set [4], in data set [5] and in data set [6] was “soluble” throughout. Further, the solubility result in data set [7] was “soluble”; in data set [8], “soluble”; in data set [9], “Insoluble”.

As to `O=[N+]([O-])c1ccc(-c2csc(Nc3nc(Nc4ccc(F)cc4)nc(Nc4ccc(F)cc4)n3)n2)cc1`, the MIC in [10] worked out at 50 µg/mL (≈ 96.4 µM); in [11] it was 25 µg/mL (≈ 48.2 µM); in [12], 50 µg/mL (≈ 96.4 µM); in data set [13], 25 µg/mL (≈ 48.2 µM); in [14], 100 µg/mL (≈ 193 µM); in data set [15], 50 µg/mL (≈ 96.4 µM). The solubility entry in [1] is reported as “soluble”; in data set [2], “Insoluble”; in data set [3], “soluble”; in data set [4] it was “soluble”; in data set [5], “Insoluble”; in [6] it was “soluble”. Also, the solubility entry in data set [7], in data set [8] and in data set [9] was “soluble” in each case.

For `O=[N+]([O-])c1ccc(-c2csc(Nc3nc(Nc4ccc(Cl)cc4)nc(Nc4ccc(Cl)cc4)n3)n2)cc1`, the MIC came to 25 µg/mL (≈ 45.3 µM) in [10]; 12.5 µg/mL (≈ 22.7 µM) in data set [11]; 25 µg/mL (≈ 45.3 µM) in data set [12]; 6.25 µg/mL (≈ 11.3 µM) in data set [13]; 12.5 µg/mL (≈ 22.7 µM) in data set [14]; 6.25 µg/mL (≈ 11.3 µM) in data set [15]. Besides, the solubility entry in data set [1] is listed as “soluble”; in data set [2], “Insoluble”; in data set [3], “soluble”; in [4] it was “soluble”; in data set [5], “Insoluble”; in [6] it was “soluble”. For the same molecule, the solubility entry in data set [7] is given as “soluble”; in data set [8], “soluble”; in data set [9] it was “Insoluble”.

Turning to `CN[C@@H]1[C@H](O[C@H]2[C@H](O[C@H]3[C@H](O)[C@@H](O)[C@H](N=C(N)N)[C@@H](O)[C@@H]3N=C(N)N)O[C@@H](C)[C@]2(O)C=O)O[C@@H](CO)[C@H](O)[C@H]1O` [STREPTOMYCIN], the MIC amounted to 3.12 µg/mL (≈ 5.37 µM) in data set [10]; 6.25 µg/mL (≈ 10.7 µM) in data set [11]; 6.25 µg/mL (≈ 10.7 µM) in [12]; 3.12 µg/mL (≈ 5.37 µM) in [13]; 3.12 µg/mL (≈ 5.37 µM) in data set [14]; 6.25 µg/mL (≈ 10.7 µM) in data set [15].
